Where a SMILES comes first, the peptide text is derived from it.
Columns and labels:
[1] = tested on: passive nuclear influx of GFP; experiment: Passive import assay, GFP, permeabilized HeLa; format: cell-based, human; conditions: preincubation 30–60 min, with energy and lysate; imaged 5 min
[2] = target: importin β-mediated nuclear import of Rango (Homo sapiens, UniProt Q14974); experiment: Permeabilized cell nuclear import assay, Rango, mouse primary cortical neurons; format: cell-based; conditions: for Effect on Rango import at steady state: 100 µM, fixed at 2 hr; for Effect on Rango import, time-lapse imaging: 30 min, up to 100 µM
Text: All animal procedures were approved by the Johns Hopkins Animal Care and Use Committee. Timed pregnant C57BL/6J females (Jackson Laboratory, Bar Harbor, ME) were sacrificed by cervical dislocation at E16, cortex dissociated, and cells plated at 50,000/well on poly-D-lysine/laminin-coated, optical glass-bottom 96-well plates. Growth medium consisted of Neurobasal supplemented with B27, Glutamax, and penicillin/streptomycin (Gibco/ThermoFisher). At 5–7 days in vitro, neurons were rinsed in prewarmed PBS and permeabilized for 4 min. at 37° in a hypotonic solution containing […] Tris-HCl pH 7.5 (to cause osmotic swelling) and 50–150 mg/ml BSA (for molecular crowding/mechanical support). Following permeabilization, cells were placed on ice and rinsed 2 × 5 min in transport buffer (TRB, 20 mM HEPES, 110 mM KOAc, 2 mM Mg(OAc)2, 5 mM NaOAc, 0.5 mM EGTA, 250 mM sucrose, pH 7.3, with protease inhibitor cocktail). All rinse and assay buffers were supplemented with 50 mg/mL BSA. The optimal hypotonic buffer and BSA concentration varied by batch, and was optimized prior to each set of assays for ability to permeabilize the majority of plasma membranes while maintaining nuclear exclusion of a 70 kD fluorescent dextran (ThermoFisher).
Concentrated whole cell lysates were prepared from HEK293T cells (ATCC, mycoplasma negative and validated by STR profiling), grown in 150 mm dishes and sonicated on ice in 1X TRB in the presence of protease inhibitor cocktail (Roche). The lysates were clarified (15 min, 14000 g, 4C), snap frozen in liquid nitrogen, and stored in single use aliquots at −80C. Total HEK cell RNA was extracted using miRNEasy kits according to the manufacturers’ protocol, with DNase digestion (Qiagen). RNA concentration was measured by Nanodrop (ThermoFisher), and all 260/280 ratios were verified to be > 2.0. Energy regeneration (ER) mix consisted of 100 µM ATP, 100 µM GTP, 4 mM creatine phosphate, and 20 U/mL creatine kinase (Roche).
Reaction mixes consisting of 2.5 mg/ml lysate, ER, fluorescent cargo (200 nM Rango and YFP-M9-CFP, 500 nM GST-GFP-NLS), Hoechst, DPRs, RNA, or inhibitors (100 µM importazole (IPZ, Millipore Sigma); 0.8 mg/mL wheat germ agglutinin (WGA, Millipore Sigma) were assembled on ice during cell permeabilization. DPRs or inhibitors were allowed to equilibrate in cell lysate for at least 30 min prior to initiation of transport. Every plate included: (1) Cargo alone: fluorescent cargo, but no ER or lysate, (2) Untreated controls: fluorescent cargo, ER, and lysate, and (3) Inhibitor: fluorescent cargo, ER, lysate, and IPZ (Rango and GST-GFP-NLS reactions) or WGA (YFP-M9-CFP). Preassembled transport reactions were then transferred onto permeabilized cells via multichannel pipette, and allowed to proceed at room temperature for 2 hr (Rango, YFP-M9-CFP) or 4 hr (GST-GFP-NLS). Cells were fixed in 4% paraformaldehyde/PBS, rinsed 2x with PBS, and transferred to 50% glycerol/PBS for immediate imaging.
For a subset of neuron transport assays, transport was monitored live via time lapse imaging every 5 min for 30 min. In a subset of HeLa assays, transport reactions were centrifuged before use at 14,000g × 15 min to separate soluble and insoluble fractions. In another variation, the transport lysate + DPR and ER mix was allowed to preincubate on the permeabilized HeLa cells for 1 hour prior to initiation of transport, rinsed 1x with TRB, and transport initiated with fresh lysate, cargo, and ER.
Multiple non-overlapping fields per well (4 for time-lapse imaging, 9-16 for fixed imaging), were captured at 40x on an ImageXpress Micro XLS high-content microscope (Molecular Devices, San Jose, CA), and the ratio of nuclear to cytoplasmic fluorescence intensity was calculated using the MetaXpress automated translocation-enhanced module. Raw data were filtered to exclude autofluorescence and the mean N/C ratio from wells without ER or cell lysate was subtracted from all values.

[3] = DPR aggregate formation in HEK lysate (pellet vs. supernatant, total protein); format: biochemical, human
Protocol: Supernatant and pellet fractions (for all 5 DPRs, and control/buffer only) were prepared as in the nuclear transport assays, by adding 100 µM 10mers to 2.5 mg/ml HEK lysate in 100 µL TRB. Supernatants were boiled in Laemmli (BioRad) for 5 min. Pellets were boiled for 15 min followed by sonication in order to fully disperse aggregates for SDS-PAGE. Equal volumes of supernatant and pellet fractions were run on 4–12% Bolt Bis-Tris Plus gels (ThermoFisher), transferred to nitrocellulose membrane using an iBlot2 dry blotting system (ThermoFisher). Protein loading was analyzed by BLOT-Faststain (G-biosciences, St. Louis, MO), according to the manufacterers’ instructions. For immunodetection, membranes were blocked with 5% non-fat milk in TBST and probed by sequential incubation with the primary antibodies as detailed in the table below. Detection was by HRP-conjugated secondary antibodies/chemiluminescence using an ImageQuant LAS 4000 system (GE, Chicago, IL). To permit sequential probing of membranes without stripping, signals were quenched by incubation with prewarmed 30% H20_2 for 20 min ([Sennepin et al., 2009]). Band intensities were measured by ImageQuant software. For pellet vs. supernatant fractions, all were expressed as percent untreated control. […]

importin β = experiment: DPR aggregation assay and western blot, ImpB; format: biochemical, human; conditions: for ImpB band density, % untr control: Fig 5-suppl 3C, normalized to untreated HEK on same membrane; for ImpB band density, Pellet / ImpB band density, Supernatant: 100 µM 10mer in 2.5 mg/ml HEK lysate, normalized to untreated HEK;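 on ImpB band density, % untr control: RNA rows contain added 20 µg total HEK RNA while no-RNA rows lack it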
Protocol: (§1) Supernatant and pellet fractions (for all 5 DPRs, and control/buffer only) were prepared as in the nuclear transport assays, by adding 100 µM 10mers to 2.5 mg/ml HEK lysate in 100 µL TRB. Supernatants were boiled in Laemmli (BioRad) for 5 min. Pellets were boiled for 15 min followed by sonication in order to fully disperse aggregates for SDS-PAGE. Equal volumes of supernatant and pellet fractions were run on 4–12% Bolt Bis-Tris Plus gels (ThermoFisher), transferred to nitrocellulose membrane using an iBlot2 dry blotting system (ThermoFisher). Protein loading was analyzed by BLOT-Faststain (G-biosciences, St. Louis, MO), according to the manufacterers’ instructions. For immunodetection, membranes were blocked with 5% non-fat milk in TBST and probed by sequential incubation with the primary antibodies as detailed in the table below. Detection was by HRP-conjugated secondary antibodies/chemiluminescence using an ImageQuant LAS 4000 system (GE, Chicago, IL). To permit sequential probing of membranes without stripping, signals were quenched by incubation with prewarmed 30% H20_2 for 20 min ([Sennepin et al., 2009]). Band intensities were measured by ImageQuant software. For pellet vs. supernatant fractions, all were expressed as percent untreated control. For blots in Figure 1E, samples were run on 4–20% SDS PAGE minigels (ThermoFisher) and blotted to PVDF membranes (Immun-Blot PVDF, Bio-Rad) using the Bio-Rad TransBlot Turbo apparatus, and probed as above. The chemiluminescence signal was captured with a Bio-Rad ChemiDoc XRS+ digital imaging system.

TDP-43 = experiment: DPR aggregation assay and western blot, TDP-43; format: biochemical, human; conditions: for TDP43 band density, % untr control: Fig 5-suppl 3C, normalized to untreated HEK on same membrane; for TDP43 band density, % control: normalized to untreated HEK cells on the same membrane
Protocol: as §1

[4] = Pellet, no RNA (Untreated), blot 1
[5] = Pellet, no RNA (Untreated), blot 2
[6] = Supernatant, no RNA (Untreated), blot 1
[7] = Supernatant, no RNA (Untreated), blot 2

Chain of importin β-mediated nuclear import of Rango (Q14974 whole entry): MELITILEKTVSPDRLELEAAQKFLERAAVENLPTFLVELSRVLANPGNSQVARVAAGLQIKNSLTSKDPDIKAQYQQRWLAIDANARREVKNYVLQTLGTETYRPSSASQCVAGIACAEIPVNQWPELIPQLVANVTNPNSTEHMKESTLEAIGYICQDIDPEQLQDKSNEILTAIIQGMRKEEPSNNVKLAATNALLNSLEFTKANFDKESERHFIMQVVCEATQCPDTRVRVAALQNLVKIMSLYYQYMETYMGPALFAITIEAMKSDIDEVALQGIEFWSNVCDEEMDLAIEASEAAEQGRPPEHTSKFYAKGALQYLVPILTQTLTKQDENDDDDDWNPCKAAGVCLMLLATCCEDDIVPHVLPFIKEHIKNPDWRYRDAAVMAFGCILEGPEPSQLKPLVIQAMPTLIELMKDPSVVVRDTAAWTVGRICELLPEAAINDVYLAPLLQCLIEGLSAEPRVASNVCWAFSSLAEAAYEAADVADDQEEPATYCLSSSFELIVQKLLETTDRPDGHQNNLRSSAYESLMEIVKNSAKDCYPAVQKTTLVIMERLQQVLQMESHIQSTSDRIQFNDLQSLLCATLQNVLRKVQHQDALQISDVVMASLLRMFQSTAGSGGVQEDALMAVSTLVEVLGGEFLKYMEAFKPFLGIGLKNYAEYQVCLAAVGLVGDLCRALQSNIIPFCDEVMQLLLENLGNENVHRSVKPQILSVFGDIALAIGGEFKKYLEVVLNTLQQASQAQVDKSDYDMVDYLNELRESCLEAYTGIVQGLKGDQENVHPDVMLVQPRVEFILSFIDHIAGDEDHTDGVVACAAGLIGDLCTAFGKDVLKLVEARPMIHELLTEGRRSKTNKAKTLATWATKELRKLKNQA

Molecule	Effect on passive nuclear influx of GFP [1]	Effect on Rango import at steady state [2]	Effect on Rango import, time-lapse imaging [2]	ImpB band density, % untr control (importin β; Pellet, RNA, blot 1) [%]	ImpB band density, % untr control (importin β; Pellet, RNA, blot 2) [%]	ImpB band density, % untr control (importin β; [4]) [%]	ImpB band density, % untr control (importin β; [5]) [%]	ImpB band density, % untr control (importin β; Supernatant, RNA, blot 1) [%]	ImpB band density, % untr control (importin β; Supernatant, RNA, blot 2) [%]	ImpB band density, % untr control (importin β; [6]) [%]	ImpB band density, % untr control (importin β; [7]) [%]	TDP43 band density, % untr control (TDP-43; Pellet, RNA, blot 1) [%]	TDP43 band density, % untr control (TDP-43; Pellet, RNA, blot 2) [%]	TDP43 band density, % untr control (TDP-43; [4]) [%]	TDP43 band density, % untr control (TDP-43; [5]) [%]	TDP43 band density, % untr control (TDP-43; Supernatant, RNA, blot 1) [%]	TDP43 band density, % untr control (TDP-43; Supernatant, RNA, blot 2) [%]	TDP43 band density, % untr control (TDP-43; [6]) [%]	TDP43 band density, % untr control (TDP-43; [7]) [%]	also measured
GPGPGPGPGPGPGPGPGPGPKC [GP10, Synthetic 10-mer GP dipeptide repeat with C-terminal lysine and cysteine]	not observed	no effect	no effect																	
PA10: Synthetic 10-mer PA dipeptide repeat with C-terminal lysine and cysteine (PAPAPAPAPAPAPAPAPAPAKC)	not observed	only trace inhibition	no effect																	
GA10: Synthetic 10-mer GA dipeptide repeat with C-terminal lysine and cysteine (GAGAGAGAGAGAGAGAGAGAKC)	not observed	only trace inhibition	no effect	90.07	91.42	90.15	102.12	78.71	123.36	89.10	114.58	112.48	99.51	116.61	120.53	88.02	100.78	86.33	98.73	Aggregate formation in cell lysate ([3]; transport assay lysate): did not observe GA-induced aggregate formation; NCT inhibition in permeabilized neurons ([2]; high concentrations): only minimal inhibition at high concentrations
N=C(N)NCCC[C@H](NC(=O)[C@@H]1CCCN1C(=O)[C@H](CCCNC(=N)N)NC(=O)[C@@H]1CCCN1C(=O)[C@H](CCCNC(=N)N)NC(=O)[C@@H]1CCCN1C(=O)[C@H](CCCNC(=N)N)NC(=O)[C@@H]1CCCN1C(=O)[C@H](CCCNC(=N)N)NC(=O)[C@@H]1CCCN1C(=O)[C@H](CCCNC(=N)N)NC(=O)[C@@H]1CCCN1C(=O)[C@H](CCCNC(=N)N)NC(=O)[C@@H]1CCCN1C(=O)[C@H](CCCNC(=N)N)NC(=O)[C@@H]1CCCN1C(=O)[C@H](CCCNC(=N)N)NC(=O)[C@@H]1CCCN1C(=O)[C@H](CCCNC(=N)N)NC(=O)[C@@H]1CCCN1)C(=O)O [PR10] (H-PRPRPRPRPRPRPRPRPRPR-OH; N-terminus and C-terminus assumed)			dose-dependent inhibition of transport	176.94	208.79	231.77	273.94	95.64	121.54	76.39	117.49	155.77	157.99	180.16	165.43	71.23	80.31	41.29	36.83	Depletion of NCT proteins from the supernatant ([3]; 100 µM): not substantially depleted from the supernatant; ImpB band density, Pellet (importin β; Blot 1): 818.3 % control; ImpB band density, Supernatant (importin β; Blot 1): 89.3 % control; ImpB band density, Pellet (importin β; Blot 2): 483.8 % control; ImpB band density, Supernatant (importin β; Blot 2): 77.0 % control; TDP43 band density, % control (TDP-43; Pellet, Blot 1): 424.3 % control; TDP43 band density, % control (TDP-43; Pellet, Blot 2): 185.6 % control; TDP43 band density, % control (TDP-43; Supernatant, Blot 1): 54.8 % control; TDP43 band density, % control (TDP-43; Supernatant, Blot 2): 45.9 % control

From PMC7051184, “C9orf72 arginine-rich dipeptide repeat proteins disrupt karyopherin-mediated nuclear import” (eLife, 2020)
